# Reference: BindingDB's records for patent US20250057848 (Neurim Pharmaceuticals (1991), 2025)
# Target: Neurotensin receptor type 1 (Homo sapiens, UniProt P30989)
# Assay: Binding of Neurotensin to the NTSR1 Receptor
# Text: However, the potency of GAL 475 at these receptors was lower than 1 micromolar and therefore not considered to be pharmacologically interesting. […] GAL475 was subsequently tested for PAM activity at the human NTS1 (FAST-0330I) and NTS2 (FAST-0331I) receptors, at 100-50,000 nanomolar concentrations.
# Neurotensin receptor type 1, sequence (P30989 whole entry): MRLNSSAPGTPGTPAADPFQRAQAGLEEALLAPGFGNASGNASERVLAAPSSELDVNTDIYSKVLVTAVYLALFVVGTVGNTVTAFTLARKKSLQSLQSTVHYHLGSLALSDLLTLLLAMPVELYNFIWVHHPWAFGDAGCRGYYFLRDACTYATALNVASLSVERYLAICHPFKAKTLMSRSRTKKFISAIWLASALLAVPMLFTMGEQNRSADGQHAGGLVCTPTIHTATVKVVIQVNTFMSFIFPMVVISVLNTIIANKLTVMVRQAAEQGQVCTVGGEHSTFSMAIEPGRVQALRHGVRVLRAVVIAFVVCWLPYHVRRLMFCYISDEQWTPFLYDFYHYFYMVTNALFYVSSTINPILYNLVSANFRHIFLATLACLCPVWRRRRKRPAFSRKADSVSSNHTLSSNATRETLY
structure (smiles),measurement,value
"CCCNc1nc(NC)nc2c1NC(NC)N=C2NCC(C)(C)O (stereo unspecified) [US20250057848, Compound GAL-475]",EC50,0.355 µM
